The values that follow come from publication PMC3704224 (Analytical chemistry, 2013).

Experiment [1] has as its system PTPN2. The following applies: read-out: KM for PTPN2; cited from earlier work.
The subject of experiment [2] is PTPN1. The following applies: read-out: IC50, PTPN1 inhibition (previous reports); cited from earlier work.
Experiment [3] has as its system PTP activity in single A431 cells. Nature of the experiment: Single A431 cell PTP activity. The format is cell-based, human. The following applies: single A431 cells pretreated with 1 mM; Q1 = 36%, Q3 = 77%.

Turning to `N[C@@H](Cc1ccc(OP(=O)(O)O)cc1)C(=O)O` [phosphotyrosine], the Km – broadly, the substrate concentration at which the rate is half of its maximum – in experiment [1] was 300 µM. In the case of `O=C1C=Cc2ccccc2C1=O` [1,2-naphthoquinone], the concentration for half-maximal inhibition (IC50) (as a rule, the point on the concentration scale where inhibition reaches its midpoint) in experiment [2] is 1600 to 5000 nM. Take sodium pervanadate: the “median phosphorylation remaining in 60 s (inhibition of dephosphorylation)” value in experiment [3] turned out to be 53%. Also, the IC50 in experiment [2] was 400 nM.
